Source: paper PMC11487561 (ACS Chemical Neuroscience, 2024)

How the values were obtained:
[1] = Intrinsic clearance in rat liver microsomes; type: in vitro ADME
Method: Intrinsic Clearance in Rat and Human Liver Microsomes
The in vitro intrinsic clearance (CL int) was investigated in commercially obtained hepatic microsomes from rat and human donors using the substrate depletion (i.e., loss-of-parent vs. time, or t 1/2 method) approach with analyte detection via liquid chromatography-tandem mass spectrometry (LC-MS/MS). For each species, mean %parent remaining values at each time point were calculated from replicates raw data (analyte:IS peak area ratios) and used to determine in vitro t 1/2 and CLint.
Experiments were carried out using a robot-assisted (TECAN model Evo 200). Compound was incubated (1 µM final concentration) in buffer (100 mM potassium phosphate pH 7.4 with 3 mM MgCl2) containing hepatic microsomes (0.5 mg/mL final concentration) from multiple species, discretely, at 37 °C under constant orbital shaking. After 5 minutes (pre-incubation), reactions were initiated by addition of nicotinamide adenine dinucleotide phosphate (NADPH, 1 mM final concentration). At selected time intervals (0, 3, 7, 15, 25, and 45 minutes) post-addition of NADPH, aliquots (50 µL) were taken and placed into a 96-shallow-well plate containing ice cold acetonitrile (150 µL) with carbamazepine (IS, 50 nM). The plates were then centrifuged (3000 rcf at 4 °C) for 10 minutes. The supernatants were transferred to a new 96-shallow-well daughter plate and diluted (1:1 v/v) with water (Milli-Q filtered). The plates were then sealed in preparation for LC-MS/MS analysis (see below).
Raw LC-MS/MS peak area data generated from the assay samples were used to construct natural log-transformed %parent remaining vs. time plots (using t = 0 minute post-NADPH addition sample data as starting point set to 100%). In vitro compound half-life (t 1/2) values were obtained using the following […]
k is the slope from linear regression analysis of the natural log-transformed data (using means from Where all replicates at each time point). Resulting t 1/2 values were then used to calculate hepatic CLint values according to the following equation and with the use of species-specific scale-up factors for liver weight (grams) per total body weight (kg): […]
CLint = in vitro t1/2 x 0.5 mg microsomes x 1 gram liver x kg body wt aScale-up factors used are 45 (rat) and 20 (human).2
Predicted hepatic clearance (CLhep) was calculated using the following equation: […]
Qh represents hepatic blood flow (mL/min/kg): 21 for human, 70 for rat, and 90 for mouse.
Prepared samples were injected (10 µL each) onto an AB Sciex Triple Quad 4500 mass spectrometer system with an Agilent 1260 Infinity II pump and autosampler. Mass spectrometer conditions are described in Table S1. Quantitation of compounds was performed via AB Sciex Multiquant software using the raw analyte:IS peak area ratios. The typical detection range was 0.5 ng/mL to ≥ 5,000 ng/mL utilizing a quadratic equation regression with 1/x2 weighting. […]
Table S1. LC-MS/MS Conditions*
Mobile phase A 0.5% Formic Acid in Water
Mobile phase B 0.5% Formic Acid in Acetonitrile
Gradient Time % Mobile Phase B

CYP 1A2 = molecular target: T1, CYP 1A2 (Homo sapiens, UniProt P05177); test: P450 inhibition in pooled human liver microsomes; type: in vitro ADME; conditions: pooled HLM, NADPH, CYP-specific probe substrates
T1 construct: from tissue; host or cells: pooled human liver microsomes (according to the earlier reading)
T1 sequence (P05177 whole entry): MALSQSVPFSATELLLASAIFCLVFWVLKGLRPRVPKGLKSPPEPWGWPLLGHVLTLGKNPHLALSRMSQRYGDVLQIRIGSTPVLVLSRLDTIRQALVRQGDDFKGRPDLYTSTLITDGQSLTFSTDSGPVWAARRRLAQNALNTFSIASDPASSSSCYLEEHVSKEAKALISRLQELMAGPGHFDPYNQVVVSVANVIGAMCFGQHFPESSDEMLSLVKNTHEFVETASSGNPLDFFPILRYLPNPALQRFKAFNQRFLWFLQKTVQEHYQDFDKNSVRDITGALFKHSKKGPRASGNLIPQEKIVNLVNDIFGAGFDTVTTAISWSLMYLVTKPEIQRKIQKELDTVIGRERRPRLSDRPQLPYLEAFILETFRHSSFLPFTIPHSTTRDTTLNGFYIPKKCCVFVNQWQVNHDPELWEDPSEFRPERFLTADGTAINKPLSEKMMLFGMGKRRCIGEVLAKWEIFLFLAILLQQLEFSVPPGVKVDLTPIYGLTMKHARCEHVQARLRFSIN

Adrenergic α1B = molecular target: T2, Adrenergic α1B (Rattus norvegicus, UniProt P15823); test: Lead Profiling Screen – Eurofins Panlabs; type: binding; conditions: read-out: % inh at 10 μM
T2 construct: Eurofins Panlabs (contract screen)
T2 sequence (P15823 whole entry): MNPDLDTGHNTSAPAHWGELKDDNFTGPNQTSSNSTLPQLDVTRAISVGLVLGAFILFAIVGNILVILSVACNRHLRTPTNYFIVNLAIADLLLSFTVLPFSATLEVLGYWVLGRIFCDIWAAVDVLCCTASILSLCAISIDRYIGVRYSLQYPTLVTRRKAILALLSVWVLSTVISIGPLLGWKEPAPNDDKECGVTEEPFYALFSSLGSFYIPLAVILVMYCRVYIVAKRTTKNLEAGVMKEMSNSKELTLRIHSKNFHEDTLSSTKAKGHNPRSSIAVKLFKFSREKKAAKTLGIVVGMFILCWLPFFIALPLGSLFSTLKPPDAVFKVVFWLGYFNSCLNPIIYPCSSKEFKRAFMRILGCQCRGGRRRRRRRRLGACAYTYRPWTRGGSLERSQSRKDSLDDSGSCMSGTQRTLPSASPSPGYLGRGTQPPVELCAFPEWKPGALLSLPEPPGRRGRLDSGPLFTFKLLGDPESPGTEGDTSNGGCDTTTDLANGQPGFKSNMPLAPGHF

Androgen (Testosterone) = test: Lead Profiling Screen – Eurofins Panlabs; type: binding, human
Cannabinoid CB1 = molecular target: T3, Cannabinoid CB1 (Homo sapiens, UniProt P21554); test: Lead Profiling Screen – Eurofins Panlabs; type: binding; conditions: read-out: % inh at 10 μM
T3 construct: Eurofins Panlabs (contract screen)

Endothelin ETA = molecular target: T4, Endothelin ETA (Homo sapiens, UniProt P25101); test: Lead Profiling Screen – Eurofins Panlabs; type: binding; conditions: read-out: % inh at 10 μM
T4 construct: Eurofins Panlabs (contract screen)

Endothelin ETB = molecular target: T5, Endothelin ETB (Homo sapiens, UniProt P24530); test: Lead Profiling Screen – Eurofins Panlabs; type: binding; conditions: read-out: % inh at 10 μM
T5 construct: Eurofins Panlabs (contract screen)

Glutamate, Kainate = test: Lead Profiling Screen – Eurofins Panlabs; type: binding, rat
[2] = molecular target: Leukotriene, Cysteinyl CysLT1 (Homo sapiens, UniProt Q9Y271); test: Lead Profiling Screen – Eurofins Panlabs; type: binding; conditions: read-out: % inh at 10 μM
Chain of Leukotriene, Cysteinyl CysLT1 (Q9Y271 whole entry): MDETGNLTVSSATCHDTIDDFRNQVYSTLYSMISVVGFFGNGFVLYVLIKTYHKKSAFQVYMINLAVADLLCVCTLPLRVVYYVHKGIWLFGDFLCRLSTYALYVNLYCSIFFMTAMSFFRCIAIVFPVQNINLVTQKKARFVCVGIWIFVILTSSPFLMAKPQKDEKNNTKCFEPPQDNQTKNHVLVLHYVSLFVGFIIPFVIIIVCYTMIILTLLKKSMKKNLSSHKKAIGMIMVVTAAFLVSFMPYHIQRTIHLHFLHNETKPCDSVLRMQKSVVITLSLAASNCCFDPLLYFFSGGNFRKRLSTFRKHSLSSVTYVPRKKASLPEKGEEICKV

Neuropeptide Y Y2 = Neuropeptide Y Y2 (Homo sapiens, UniProt P49146); test: Lead Profiling Screen – Eurofins Panlabs; type: binding; conditions: read-out: % inh at 10 μM
Chain of Neuropeptide Y Y2 (P49146 whole entry): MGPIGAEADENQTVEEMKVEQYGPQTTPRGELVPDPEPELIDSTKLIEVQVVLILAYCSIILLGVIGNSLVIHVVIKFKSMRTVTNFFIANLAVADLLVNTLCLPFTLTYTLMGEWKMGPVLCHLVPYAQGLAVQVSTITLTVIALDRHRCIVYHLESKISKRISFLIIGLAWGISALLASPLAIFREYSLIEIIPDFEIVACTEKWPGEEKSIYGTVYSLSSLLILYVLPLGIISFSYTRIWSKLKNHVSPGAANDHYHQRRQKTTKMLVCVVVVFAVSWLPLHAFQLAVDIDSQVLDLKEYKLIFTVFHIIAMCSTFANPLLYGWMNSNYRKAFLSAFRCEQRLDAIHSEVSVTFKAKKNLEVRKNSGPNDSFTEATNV

Opiate δ1 (OP1, DOP) = Opiate δ1 (OP1, DOP) (Homo sapiens, UniProt P41143); test: Lead Profiling Screen – Eurofins Panlabs; type: binding; conditions: read-out: % inh at 10 μM
[3] = molecular target: Platelet Activating Factor (PAF) (Homo sapiens, UniProt P25105); test: Lead Profiling Screen – Eurofins Panlabs; type: binding; conditions: read-out: % inh at 10 μM
Chain of Platelet Activating Factor (PAF) (P25105 whole entry): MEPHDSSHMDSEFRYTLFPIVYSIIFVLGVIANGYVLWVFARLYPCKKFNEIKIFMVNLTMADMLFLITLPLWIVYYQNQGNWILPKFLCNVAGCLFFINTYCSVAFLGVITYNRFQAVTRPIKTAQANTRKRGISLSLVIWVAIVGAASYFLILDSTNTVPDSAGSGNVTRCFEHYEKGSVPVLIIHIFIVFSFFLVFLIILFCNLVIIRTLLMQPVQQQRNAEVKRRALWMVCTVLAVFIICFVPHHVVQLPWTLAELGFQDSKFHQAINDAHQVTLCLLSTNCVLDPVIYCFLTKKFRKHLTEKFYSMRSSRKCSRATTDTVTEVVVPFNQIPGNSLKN

Potassium Channel [KATP] = Potassium Channel [KATP] (Cricetus cricetus, UniProt Q09427); test: Lead Profiling Screen – Eurofins Panlabs; type: binding, hamster; conditions: read-out: % inh at 10 μM
Chain of Potassium Channel [KATP] (Q09427 whole entry): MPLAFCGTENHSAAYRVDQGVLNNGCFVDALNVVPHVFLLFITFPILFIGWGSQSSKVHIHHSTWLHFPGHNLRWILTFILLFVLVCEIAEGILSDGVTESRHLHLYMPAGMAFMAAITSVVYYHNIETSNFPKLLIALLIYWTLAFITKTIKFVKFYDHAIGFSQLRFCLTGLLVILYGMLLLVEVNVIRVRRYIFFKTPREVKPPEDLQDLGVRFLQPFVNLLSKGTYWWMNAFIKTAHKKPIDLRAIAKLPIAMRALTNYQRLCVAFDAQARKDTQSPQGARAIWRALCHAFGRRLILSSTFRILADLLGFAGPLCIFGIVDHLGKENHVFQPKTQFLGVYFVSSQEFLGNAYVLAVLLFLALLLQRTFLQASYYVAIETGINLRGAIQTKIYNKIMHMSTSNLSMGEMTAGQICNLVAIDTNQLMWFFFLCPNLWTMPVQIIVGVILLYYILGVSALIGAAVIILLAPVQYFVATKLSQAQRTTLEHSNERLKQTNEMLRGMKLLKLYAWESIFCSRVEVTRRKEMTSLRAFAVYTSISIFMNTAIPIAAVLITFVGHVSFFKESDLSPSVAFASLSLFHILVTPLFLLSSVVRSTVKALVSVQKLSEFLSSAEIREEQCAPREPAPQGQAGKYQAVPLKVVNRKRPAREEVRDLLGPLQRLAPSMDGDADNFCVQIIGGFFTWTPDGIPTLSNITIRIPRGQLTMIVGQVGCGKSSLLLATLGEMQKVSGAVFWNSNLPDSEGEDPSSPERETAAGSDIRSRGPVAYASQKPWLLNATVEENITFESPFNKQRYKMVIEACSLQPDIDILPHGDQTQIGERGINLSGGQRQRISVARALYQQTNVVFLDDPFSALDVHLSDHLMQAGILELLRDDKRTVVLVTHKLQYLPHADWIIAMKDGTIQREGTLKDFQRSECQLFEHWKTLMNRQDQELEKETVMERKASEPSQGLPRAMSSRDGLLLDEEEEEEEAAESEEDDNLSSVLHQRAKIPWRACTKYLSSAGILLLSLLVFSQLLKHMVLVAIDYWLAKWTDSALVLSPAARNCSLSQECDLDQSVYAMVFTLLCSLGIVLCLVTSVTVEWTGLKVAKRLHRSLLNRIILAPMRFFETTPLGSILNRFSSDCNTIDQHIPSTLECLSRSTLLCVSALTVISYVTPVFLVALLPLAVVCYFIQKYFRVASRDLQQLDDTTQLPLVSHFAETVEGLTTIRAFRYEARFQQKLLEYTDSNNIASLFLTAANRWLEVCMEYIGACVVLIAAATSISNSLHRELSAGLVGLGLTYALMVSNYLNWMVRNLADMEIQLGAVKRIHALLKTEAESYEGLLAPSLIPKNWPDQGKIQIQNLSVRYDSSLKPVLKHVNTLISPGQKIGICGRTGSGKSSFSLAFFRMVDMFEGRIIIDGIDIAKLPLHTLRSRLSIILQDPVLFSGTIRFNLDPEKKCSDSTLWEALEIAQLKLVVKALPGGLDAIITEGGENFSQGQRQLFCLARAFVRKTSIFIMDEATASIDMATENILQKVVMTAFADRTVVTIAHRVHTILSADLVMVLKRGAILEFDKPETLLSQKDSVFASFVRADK

hERG potassium channel = hERG potassium channel (Homo sapiens, UniProt Q12809); test: Lead Profiling Screen – Eurofins Panlabs; type: binding; conditions: read-out: % inh at 10 μM
Chain of hERG potassium channel (Q12809 whole entry): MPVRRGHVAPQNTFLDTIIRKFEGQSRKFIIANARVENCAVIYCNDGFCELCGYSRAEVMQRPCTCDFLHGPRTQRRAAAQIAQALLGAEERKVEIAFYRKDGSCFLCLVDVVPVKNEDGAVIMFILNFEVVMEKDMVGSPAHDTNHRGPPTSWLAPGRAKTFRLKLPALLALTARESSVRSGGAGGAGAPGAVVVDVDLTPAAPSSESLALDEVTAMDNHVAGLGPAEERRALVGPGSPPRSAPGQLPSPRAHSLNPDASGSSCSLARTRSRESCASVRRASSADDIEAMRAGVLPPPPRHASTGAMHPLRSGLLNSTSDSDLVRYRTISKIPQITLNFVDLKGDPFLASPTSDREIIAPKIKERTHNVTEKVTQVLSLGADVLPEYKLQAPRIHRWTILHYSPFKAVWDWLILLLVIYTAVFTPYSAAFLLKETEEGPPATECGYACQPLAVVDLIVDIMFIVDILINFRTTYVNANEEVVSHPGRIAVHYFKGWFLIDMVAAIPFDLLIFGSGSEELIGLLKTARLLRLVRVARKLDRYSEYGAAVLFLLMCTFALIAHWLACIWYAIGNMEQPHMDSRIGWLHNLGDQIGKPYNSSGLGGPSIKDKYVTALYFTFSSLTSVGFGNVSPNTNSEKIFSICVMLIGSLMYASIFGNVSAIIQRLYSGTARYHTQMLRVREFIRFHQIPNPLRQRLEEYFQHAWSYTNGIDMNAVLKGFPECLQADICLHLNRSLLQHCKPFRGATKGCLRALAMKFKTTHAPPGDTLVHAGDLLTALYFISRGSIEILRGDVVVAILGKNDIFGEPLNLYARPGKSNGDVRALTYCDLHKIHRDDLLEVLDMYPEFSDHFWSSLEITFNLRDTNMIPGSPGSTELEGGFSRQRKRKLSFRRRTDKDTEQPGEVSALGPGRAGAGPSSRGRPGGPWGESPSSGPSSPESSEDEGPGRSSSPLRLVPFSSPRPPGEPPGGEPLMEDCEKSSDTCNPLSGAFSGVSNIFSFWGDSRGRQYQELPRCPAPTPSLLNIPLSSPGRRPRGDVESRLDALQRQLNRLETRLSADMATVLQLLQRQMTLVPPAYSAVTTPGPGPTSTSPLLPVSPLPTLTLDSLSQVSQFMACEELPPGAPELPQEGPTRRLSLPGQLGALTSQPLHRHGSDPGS

[4] = molecular target: Serotonin (5-Hydroxytryptamine) 5-HT1A (Homo sapiens, UniProt P08908); test: Lead Profiling Screen – Eurofins Panlabs; type: binding; conditions: read-out: % inh at 10 μM

In the case of `Cc1nc(C)c2c(n1)sc1c(NCc3ccc(C(C)(C)O)cc3)nccc12` [22g], the CLint scaled at 1 µM ([1]; pH 7.4, rat liver microsomes) is reported as 78 mL/min/kg, the “CLhep, rat” value ([1]; predicted hepatic clearance from microsomal CLint) is reported as 37 mL/min/kg and the IC50 (CYP 1A2) is reported as 23 µM. For the same molecule, the inhibition at 10 µM (Adrenergic α1B) was 7%, the “% inh at 10 μM” value (Androgen (Testosterone)) was 5% and the inhibition at 10 µM (Cannabinoid CB1) was -4%. The inhibition at 10 µM (Endothelin ETA) was -2%, the inhibition at 10 µM (Endothelin ETB) was 6% and the “% inh at 10 μM” value (Glutamate, Kainate) was -8%. It also gave an inhibition at 10 µM [2] of 6%, an inhibition at 10 µM (Neuropeptide Y Y2) of 12% and an inhibition at 10 µM (Opiate δ1 (OP1, DOP)) of -2%. The inhibition at 10 µM [3] was 7%, the inhibition at 10 µM (Potassium Channel [KATP]) was 4% and the inhibition at 10 µM (hERG potassium channel) was 16%. It also gave an inhibition at 10 µM [4] of 7%.
